Assay results reported in US11530222B2, “Substituted pyrrolopyrimidine and pyrazolopyrimidine as Bruton's tyrosine kinase (BTK) degraders” (ACCUTAR BIOTECHNOLOGY INC., priority 2021, dated 2022).

Key:
Format in all cases: cell-based
BTK = biological target: T1, BTK (Homo sapiens, UniProt Q06187); test: BTK degradative activity in a RAMOS cell line (Western blot); conditions: 6 hours after administration, read-out: RAMOS BTK Degradation DC50
T1 construct: BTK Degradative Activity of Exemplary Compounds of the Present Disclosure in a RAMOS Cell Line; host or cells: RAMOS
How it was run: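 Ramos cells in RPMI with 10% FBS were treated with compound in DMSO at various concentrations for 6 h at 37 °C. BTK was measured by Western blot against GAPDH with infrared fluorescent detection and band quantification. DC50 is the concentration at which 50% of BTK is degraded.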

REC-1 cells = test: Growth inhibitory activity in BTK-dependent REC-1 cell line (CellTiter-Glo); conditions: Homo sapiens, Rec1, 144 h, 6 days after administration, read-out: REC1 Cellular Grwoth Inhibition IC50
Experimental: (§1) REC-1 (ATCC) and REC-1 BTK^C481S cells were plated in 96-well plates at 8,000 cells/well in 90 ul of RPMI growth medium containing 10% heat-inactivated FBS and 1× Penicillin Streptomycin, and then incubated at 37° C. overnight. The following day, the test compound was administered to the cells by using 10× compound stock solution prepared in growth medium at various concentrations. After administration of the compound, cells were then incubated at 37° C. for 6 days. Before CellTiter-Glo assay, the plates were equilibrated at room temperature for approximately 10 minutes. 100 ul of CellTiter-Glo® Reagent (Promega) was added to each well. The plates were then incubated at room temperature for 10 minutes and luminescence was recorded by EnSpire plate reader (PerkinElmer).
(§2) The GI50 values (i.e., the concentration of test compound at which 50% of cell growth are inhibited) were calculated. A designation of “A” corresponds to a […] value less than 20 nM. A designation of “B” corresponds to a […] value greater than or equal to 20 nM and less than 200 nM. A designation of “C” corresponds to a […] value greater than or equal to 200 nM.

REC-1 BTK^C481S cells = test: Growth inhibitory activity in REC-1 BTK^C481S cell line (CellTiter-Glo); conditions: Homo sapiens, Rec1, 144 h, 6 days after administration, read-out: REC1 BTK^C481S Cellular Grwoth Inhibition IC50
Experimental: The BTK gene in REC-1 cell line (ATCC) was edited by the CRISPR-Cas9 technology to create a C to S point mutation at residue 481 of BTK protein. For gene editing, first, gRNA complex was prepared with Alt-R CRISPR-Cas9 tracrRNA and crRNA BTK^C481S (5′-[…]-3′) (IDT-Integrated DNA Technologies), and then BTK^C481S ribonucleoprotein (RNP) complex was prepared with gRNA complex and Alt-R S.p. Cas9 Nuclease V3 (IDT-Integrated DNA Technologies). Next, 1×10^5 REC-1 cells were electroporated with BTK^C481S RNP complex, Alt-R Cas9 Electroporation Enhancer and BTKC481S Ultramer DNA Oligo (5′-[…] […]-3′) (IDT-Integrated DNA Technologies) using Neon Transfection System (Thermo Fisher) under the condition of 1400 V, 10 ms, 3 pulses. Cells were then plated in a 96-well plate for 10 days and selected with 10 nM Ibrutinib for 5 passages. C481S mutation of BTK was further validated by Sanger Sequencing using gDNA extracted from these cells.
as §1, §2

T1 sequence (Q06187 whole entry): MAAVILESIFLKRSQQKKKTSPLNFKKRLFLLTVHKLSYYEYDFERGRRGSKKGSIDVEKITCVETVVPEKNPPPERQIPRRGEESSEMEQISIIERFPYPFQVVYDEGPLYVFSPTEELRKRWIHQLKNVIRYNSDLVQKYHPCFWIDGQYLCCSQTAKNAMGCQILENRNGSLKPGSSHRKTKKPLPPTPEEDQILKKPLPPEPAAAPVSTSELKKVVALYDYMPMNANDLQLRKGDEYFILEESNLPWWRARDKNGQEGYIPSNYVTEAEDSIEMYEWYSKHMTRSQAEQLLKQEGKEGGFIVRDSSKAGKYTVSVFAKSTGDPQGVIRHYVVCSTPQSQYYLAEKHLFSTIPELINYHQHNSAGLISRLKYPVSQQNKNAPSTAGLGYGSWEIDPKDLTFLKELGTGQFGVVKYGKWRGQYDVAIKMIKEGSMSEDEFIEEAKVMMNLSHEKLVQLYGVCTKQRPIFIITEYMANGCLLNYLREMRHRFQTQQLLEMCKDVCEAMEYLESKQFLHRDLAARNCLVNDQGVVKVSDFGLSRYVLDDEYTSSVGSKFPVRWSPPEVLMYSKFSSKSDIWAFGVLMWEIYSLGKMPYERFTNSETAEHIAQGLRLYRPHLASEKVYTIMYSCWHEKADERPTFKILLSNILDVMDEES

DC50 (BTK) [nM]	SMILES	IC50 (REC-1 cells) [nM]	IC50 (REC-1 BTK^C481S cells) [nM]
< 10	COc1ccc(F)cc1C(=O)NCc1ccc(-c2nn(-c3ccc(N4CCC(CN5CCN(c6ccc7c(c6)CN([C@H]6CCC(=O)NC6=O)C7=O)CC5)C4)c(F)c3)c3ncnc(N)c23)cc1 (stereo partly drawn) [Compound 65, N-(4-(4-amino-1-(4-(3-((4-(2-((S)-2,6-dioxopiperidin-3-yl)-1-oxoisoindolin-5-yl)piperazin-1-yl)methyl)pyrrolidin-1-yl)-3-fluorophenyl)-1H-pyrazolo[3,4-d]pyrimidin-3-yl)benzyl)-5-fluoro-2-methoxybenzamide]	< 20	< 20
< 10	COc1ccc(F)cc1C(=O)NCc1ccc(-c2nn(-c3ccc(N4CC(CN5CCN(c6ccc7c(c6)CN([C@H]6CCC(=O)NC6=O)C7=O)CC5)C4)c(F)c3)c3ncnc(N)c23)cc1 [Compound 85, (S)—N-(4-(4-amino-1-(4-(3-((4-(2-(2,6-dioxopiperidin-3-yl)-1-oxoisoindolin-5-yl)piperazin-1-yl)methyl)azetidin-1-yl)-3-fluorophenyl)-1H-pyrazolo[3,4-d]pyrimidin-3-yl)benzyl)-5-fluoro-2-methoxybenzamide]	< 20	< 20
< 10	COc1ccc(F)cc1C(=O)NCc1ccc(-c2nn(-c3ccc(N4CC(CN5CCN(c6ccc7c(c6)CN([C@H]6CCC(=O)NC6=O)C7=O)CC5)C4)nc3)c3ncnc(N)c23)cc1 [Compound 97, (S)—N-(4-(4-amino-1-(6-(3-((4-(2-(2,6-dioxopiperidin-3-yl)-1-oxoisoindolin-5-yl)piperazin-1-yl)methyl)azetidin-1-yl)pyridin-3-yl)-1H-pyrazolo[3,4-d]pyrimidin-3-yl)benzyl)-5-fluoro-2-methoxybenzamide]	< 20	< 20
< 10	COc1ccc(F)cc1C(=O)NCc1ccc(-c2nn(-c3ccc(N4CC[C@H](CN5CCN(c6ccc7c(c6)CN([C@H]6CCC(=O)NC6=O)C7=O)CC5)C4)c(F)c3)c3ncnc(N)c23)cc1 [Compound 95, N-(4-(4-amino-1-(4-((R)-3-((4-(2-((S)-2,6-dioxopiperidin-3-yl)-1-oxoisoindolin-5-yl)piperazin-1-yl)methyl)pyrrolidin-1-yl)-3-fluorophenyl)-1H-pyrazolo[3,4-d]pyrimidin-3-yl)benzyl)-5-fluoro-2-methoxybenzamide]	< 20	< 20
< 10	COc1ccc(F)cc1C(=O)NCc1ccc(-c2nn(-c3ccc(N4CC[C@@H](CN5CCN(c6ccc7c(c6)CN([C@H]6CCC(=O)NC6=O)C7=O)CC5)C4)nc3)c3ncnc(N)c23)cc1 [Compound 94, N-(4-(4-amino-1-(6-((S)-3-((4-(2-((S)-2,6-dioxopiperidin-3-yl)-1-oxoisoindolin-5-yl)piperazin-1-yl)methyl)pyrrolidin-1-yl)pyridin-3-yl)-1H-pyrazolo[3,4-d]pyrimidin-3-yl)benzyl)-5-fluoro-2-methoxybenzamide]	< 20	< 20
< 10	COc1ccc(F)cc1C(=O)NCc1ccc(-c2nn(-c3ccc(N4CC[C@H](CN5CCN(c6ccc7c(c6)CN([C@H]6CCC(=O)NC6=O)C7=O)CC5)C4)nc3)c3ncnc(N)c23)cc1 [Compound 93, N-(4-(4-amino-1-(6-((R)-3-((4-(2-((S)-2,6-dioxopiperidin-3-yl)-1-oxoisoindolin-5-yl)piperazin-1-yl)methyl)pyrrolidin-1-yl)pyridin-3-yl)-1H-pyrazolo[3,4-d]pyrimidin-3-yl)benzyl)-5-fluoro-2-methoxybenzamide]	< 20	< 20
< 10	COc1ccc(F)cc1C(=O)NCc1ccc(-c2nn(-c3ccc(N4CCC(CN5CCN(c6ccc7c(c6)CN([C@H]6CCC(=O)NC6=O)C7=O)CC5)C4)nc3)c3ncnc(N)c23)cc1 (stereo partly drawn) [Compound 66, N-(4-(4-amino-1-(6-(3-((4-(2-((S)-2,6-dioxopiperidin-3-yl)-1-oxoisoindolin-5-yl)piperazin-1-yl)methyl)pyrrolidin-1-yl)pyridin-3-yl)-1H-pyrazolo[3,4-d]pyrimidin-3-yl)benzyl)-5-fluoro-2-methoxybenzamide]	< 20	< 20
< 10	COc1ccc(F)cc1C(=O)NCc1ccc(-c2nn(-c3ccc(N4CCC(CN5CCN(c6cc7c(cc6F)C(=O)N([C@H]6CCC(=O)NC6=O)C7)CC5)CC4)c(F)c3)c3ncnc(N)c23)cc1 [Compound 51, (S)—N-(4-(4-amino-1-(4-(4-((4-(2-(2,6-dioxopiperidin-3-yl)-6-fluoro-1-oxoisoindolin-5-yl)piperazin-1-yl)methyl)piperidin-1-yl)-3-fluorophenyl)-1H-pyrazolo[3,4-d]pyrimidin-3-yl)benzyl)-5-fluoro-2-methoxybenzamide]	< 20	–
< 10	COc1ccc(F)cc1C(=O)NCc1ccc(-c2nn(-c3ccc(N4CCC(CN5CCN(c6ccc7c(c6)CN([C@H]6CCC(=O)NC6=O)C7=O)CC5)CC4)c(F)c3)c3ncnc(N)c23)cc1 [Compound 49, (S)—N-(4-(4-amino-1-(4-(4-((4-(2-(2,6-dioxopiperidin-3-yl)-1-oxoisoindolin-5-yl)piperazin-1-yl)methyl)piperidin-1-yl)-3-fluorophenyl)-1H-pyrazolo[3,4-d]pyrimidin-3-yl)benzyl)-5-fluoro-2-methoxybenzamide]	< 20	< 20
< 10	COc1ccc(F)cc1C(=O)NCc1ccc(-c2nn(-c3ccc(N4CC[C@@H](CN5CCN(c6ccc7c(c6)CN([C@H]6CCC(=O)NC6=O)C7=O)CC5)C4)c(F)c3)c3ncnc(N)c23)cc1 [Compound 96, N-(4-(4-amino-1-(4-((S)-3-((4-(2-((S)-2,6-dioxopiperidin-3-yl)-1-oxoisoindolin-5-yl)piperazin-1-yl)methyl)pyrrolidin-1-yl)-3-fluorophenyl)-1H-pyrazolo[3,4-d]pyrimidin-3-yl)benzyl)-5-fluoro-2-methoxybenzamide]	< 20	< 20
≥ 100	COc1ccc(F)cc1C(=O)NCc1ccc(-c2nn(C3CCN(c4ccc(CN5CCN(c6ccc7c(c6)CN([C@H]6CCC(=O)NC6=O)C7=O)CC5)cc4)C3)c3ncnc(N)c23)cc1 (stereo partly drawn) [Compound 60, N-(4-(4-amino-1-(1-(4-((4-(2-((S)-2,6-dioxopiperidin-3-yl)-1-oxoisoindolin-5-yl)piperazin-1-yl)methyl)phenyl)pyrrolidin-3-yl)-1H-pyrazolo[3,4-d]pyrimidin-3-yl)benzyl)-5-fluoro-2-methoxybenzamide]	20 to 200	–
–	COc1ccc(F)cc1C(=O)NCc1ccc(-c2nn(-c3ccc(N4CCC(CN5CCN(c6ccc7c(c6)CN([C@H]6CCC(=O)NC6=O)C7=O)CC5)CC4)nc3)c3ncnc(N)c23)cc1 [Compound 59, (S)—N-(4-(4-amino-1-(6-(4-((4-(2-(2,6-dioxopiperidin-3-yl)-1-oxoisoindolin-5-yl)piperazin-1-yl)methyl)piperidin-1-yl)pyridin-3-yl)-1H-pyrazolo[3,4-d]pyrimidin-3-yl)benzyl)-5-fluoro-2-methoxybenzamide]	< 20	< 20
< 10	COc1ccc(F)cc1C(=O)NCc1ccc(-c2nn(C3CN(c4ccc(CN5CCN(c6ccc7c(c6)CN([C@H]6CCC(=O)NC6=O)C7=O)CC5)cc4)C3)c3ncnc(N)c23)cc1 [Compound 61, (S)—N-(4-(4-amino-1-(1-(4-((4-(2-(2,6-dioxopiperidin-3-yl)-1-oxoisoindolin-5-yl)piperazin-1-yl)methyl)phenyl)azetidin-3-yl)-1H-pyrazolo[3,4-d]pyrimidin-3-yl)benzyl)-5-fluoro-2-methoxybenzamide]	< 20	–
